In patent US12692274B2, “Tetrahydroisoquinoline derivatives for the treatment of red blood disorders and inflammatory diseases” (Sanofi, priority 2020, dated 2026):
Values joined by “and” are separate entries in the source; they are usually repeats but may differ in a detail not shown here. Equal values may be shown once.

Columns and labels:
[1] = target: HIS-Keap1 full length / Biotin-Nrf2 (16-mer) (Homo sapiens, UniProt Q14145); assay: biochemical
[2] = tested on: NQO1 activation in BEAS-2B cells; assay: BEAS-2B cellular MTT assay of NQO1 activation, 0.3% HSA; assay type: cell-based
In short: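 MTT read-out in BEAS-2B cells grown in BEBM with SingleQuots, no GA-1000, kept below 70% confluence; plates coated with collagen, with 0.3% or 0% HSA medium, seeded to 95-100% confluency at 48 h, 37 °C, 5% CO2.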

[3] = tested on: NQO1 activation in BEAS-2B cells; assay: BEAS-2B cellular MTT assay of NQO1 activation, 0% HSA; assay type: cell-based
In short: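 For the 0% HSA condition, cells were seeded into collagen plates in HSA-free medium. Culture was BEAS-2B in BEBM plus BEGM SingleQuots lacking GA-1000, held under 70% confluence, at a seeding density reaching 95-100% confluence by 48 h.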

[4] = BEAS+ W, read-out: BEAS+ W EC50
[5] = Homo sapiens, BEAS+ W, read-out: BEAS+ W EC50
[6] = Homo sapiens, Serum Free W, read-out: BEAS EC50 (nM) Serum Free W
[7] = Serum Free W, read-out: BEAS EC50 (nM) Serum Free W
[8] = Homo sapiens, BEAS+, read-out: BEAS+ EC50
[9] = Homo sapiens, serum free, read-out: BEAS EC50 (nM) serum free
[10] = serum free, read-out: BEAS EC50 (nM) serum free

Sequence of HIS-Keap1 full length / Biotin-Nrf2 (16-mer) (Q14145 whole entry): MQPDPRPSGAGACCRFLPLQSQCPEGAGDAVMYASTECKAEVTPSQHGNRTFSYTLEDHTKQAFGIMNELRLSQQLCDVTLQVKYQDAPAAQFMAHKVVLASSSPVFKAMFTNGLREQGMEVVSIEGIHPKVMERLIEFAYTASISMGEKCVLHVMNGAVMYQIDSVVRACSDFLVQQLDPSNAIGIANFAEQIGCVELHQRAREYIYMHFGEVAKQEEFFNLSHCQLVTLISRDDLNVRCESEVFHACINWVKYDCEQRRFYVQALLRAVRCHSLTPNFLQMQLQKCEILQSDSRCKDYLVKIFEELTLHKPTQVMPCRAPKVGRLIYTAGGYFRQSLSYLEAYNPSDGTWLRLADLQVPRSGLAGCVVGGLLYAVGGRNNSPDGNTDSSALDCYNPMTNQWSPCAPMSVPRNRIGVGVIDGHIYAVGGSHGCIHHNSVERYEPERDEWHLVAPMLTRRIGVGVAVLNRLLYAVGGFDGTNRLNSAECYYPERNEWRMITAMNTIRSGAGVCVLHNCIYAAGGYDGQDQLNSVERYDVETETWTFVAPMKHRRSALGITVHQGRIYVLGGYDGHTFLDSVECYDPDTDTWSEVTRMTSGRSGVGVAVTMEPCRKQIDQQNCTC

Row | Structure (SMILES) | IC50 [1] | EC50 [2, 4] | EC50 [2, 5] | EC50 [3, 6] | EC50 [3, 7] | EC50 [2, 8] | EC50 [3, 9] | EC50 ([2]; BEAS+, read-out: BEAS+ EC50) | EC50 [3, 10]
1 | Cc1cc2ncc1[C@@H](CC(=O)O)c1ccc3c(c1)CN(CC3)C(=O)c1c(F)cc(cc1F)CCCCCO2 [Compound 122] | 52.8 nM and 42.8 nM | 54.2 nM | 47 nM | 17.6 nM | 30.2 nM | – | – | – | –
2 | O=C(O)CC1c2ccc3c(c2)CN(CC3)C(=O)c2ccc(cc2F)OCCCCCCn2nnc3cc1ccc32 (stereo not shown) [Compound 322] | 0.8 nM and 1 nM | – | – | – | – | 231 nM | 176 nM | – | –
3 | Cc1c2cnc3c1nnn3CCCCCCc1c(F)c(F)c(c(F)c1F)C(=O)N1CCc3ccc(cc3C1)[C@@H]2[C@@H](C)C(=O)O [Compound 36] | 12.7 nM and 2.5 nM | 95.4 nM | 184 nM | 35 nM | 36.7 nM | – | – | – | –
4 | Cc1c2cnc3c1nnn3CCCCCCc1ccc3c(c1)cc(n3C)C(=O)N1CCc3ccc(cc3C1)C2CC(=O)O (stereo not shown) [Compound 135] | 0.9 nM and 1.2 nM | 11.8 nM | 18.9 nM | 1.9 nM | 1.8 nM | – | – | – | –
5 | Cc1c2ccc3c1nnn3CCCCCc1cnc3c(c1)cc(n3C)C(=O)N1CCc3ccc(cc3C1)[C@H]2CC(=O)O [Compound 111] | 0.4 nM and 0.2 nM | 101 nM | 122 nM | 19 nM | 19.5 nM | – | – | – | –
6 | Cc1c2ccc3c1nnn3CCCCCCOc1ccc(nn1)C(=O)N1CCc3ccc(cc3C1)C2CC(=O)O (stereo not shown) [Compound 380] | 5.9 nM and 5.4 nM | – | – | – | – | 1230 nM | 1460 nM | 1440 nM | 1390 nM
7 | O=C(O)CC1c2ccc3c(c2)CN(CC3)C(=O)c2c(F)cc(cc2F)OCCCCCCn2nnc3cc1ccc32 (stereo not shown) [Compound 321] | 0.4 nM and 0.1 nM | – | – | – | – | 88.9 nM | 75.7 nM | – | –
8 | O=C(O)CC1c2ccc(nc2)OCCCCOc2cnc(cn2)C(=O)N2CCc3ccc1cc3C2 (stereo not shown) [Compound 185] | > 1000 nM | – | – | – | – | > 10000 nM | > 10000 nM | – | –
9 | C[C@H](C(=O)O)[C@H]1c2ccc3c(c2)CN(CC3)C(=O)c2ccc(cc2)OCCCCCn2nnc3cc1ccc32 [Compound 234] | 49.1 nM | – | – | – | – | 3860 nM | 1840 nM | 5840 nM | 1410 nM
10 | O=C(O)CC1c2ccc3c(c2)CN(CC3)C(=O)c2ncc(cc2F)CCCCCn2nnc3c(Cl)c1ccc32 (stereo not shown) [Compound 215] | 1 nM and 1.1 nM | – | – | – | – | 349 nM | 243 nM | 310 nM | 251 nM
11 | Cc1c2ccc3c1nnn3CCCCCCn1cc(c3ccccc31)C(=O)N1CCc3ccc(cc3C1)C2CC(=O)O (stereo not shown) [Compound 373] | 3.6 nM and 3.9 nM | – | – | – | – | 2030 nM | 2070 nM | 3140 nM | 2030 nM
12 | O=C(O)CC1c2ccc(nc2)OCCCCOc2ccc(cc2C(F)(F)F)C(=O)N2CCc3ccc1cc3C2 (stereo not shown) [Compound 184] | 168 nM and 147 nM | – | – | – | – | 2900 nM | 471 nM | 2570 nM | 713 nM
13 | O=C(O)CC1c2cnc(nc2)OCCCCc2ccc(c(Cl)c2)C(=O)N2CCc3ccc1cc3C2 (stereo not shown) [Compound 226] | 245 nM | – | – | – | – | > 10000 nM | > 10000 nM | – | –
14 | Cc1cc2ccc1C(=O)N1CCc3ccc(cc3C1)[C@H]([C@H](C)C(=O)O)c1ccc3c(c1)nnn3CCCCCCO2 [Compound 292] | 7.7 nM and 5.9 nM | – | – | – | – | 637 nM | 349 nM | – | –
15 | COc1cc2ccc1CCCCCCn1nnc3c(C)c(cnc31)[C@H](CC(=O)O)c1ccc3c(c1)CN(CC3)C2=O [Compound 95] | 1.8 nM and 1.9 nM | 124 nM | 92 nM | 53.1 nM | 64.8 nM | – | – | – | –
16 | C[C@@H](C(=O)O)[C@@H]1c2ccc3c(c2)CN(CC3)C(=O)c2c(F)cc(cc2F)OCCCCCCn2nnc3cc1ccc32 [Compound 256] | 86.9 nM | – | – | – | – | > 10000 nM | > 10000 nM | – | –
17 | Cc1nc2ccc1C(CC(=O)O)c1ccc3c(c1)CN(CC3)C(=O)c1ccc(cc1)CCCCCO2 (stereo not shown) [Compound 150] | 113 nM and 106 nM | – | – | – | – | 164 nM | 103 nM | 188 nM | 147 nM
